Results published in paper PMC8222254, “Self-assembly of an anion receptor with metal-dependent kinase inhibition and potent in vitro anti-cancer properties” (Nature Communications, 2021).
Where “and” joins values, the source holds several entries; their conditions need not be identical. Identical values can stand only once.

Assays:
Test in all cases: Kinase inhibition screen, cell-free 33P ATP assay at 10 μM
Type in all cases: biochemical
[1] = target: T1, 140 purified human kinases (Homo sapiens, UniProt O60285)
T1 sequence (O60285 1-661): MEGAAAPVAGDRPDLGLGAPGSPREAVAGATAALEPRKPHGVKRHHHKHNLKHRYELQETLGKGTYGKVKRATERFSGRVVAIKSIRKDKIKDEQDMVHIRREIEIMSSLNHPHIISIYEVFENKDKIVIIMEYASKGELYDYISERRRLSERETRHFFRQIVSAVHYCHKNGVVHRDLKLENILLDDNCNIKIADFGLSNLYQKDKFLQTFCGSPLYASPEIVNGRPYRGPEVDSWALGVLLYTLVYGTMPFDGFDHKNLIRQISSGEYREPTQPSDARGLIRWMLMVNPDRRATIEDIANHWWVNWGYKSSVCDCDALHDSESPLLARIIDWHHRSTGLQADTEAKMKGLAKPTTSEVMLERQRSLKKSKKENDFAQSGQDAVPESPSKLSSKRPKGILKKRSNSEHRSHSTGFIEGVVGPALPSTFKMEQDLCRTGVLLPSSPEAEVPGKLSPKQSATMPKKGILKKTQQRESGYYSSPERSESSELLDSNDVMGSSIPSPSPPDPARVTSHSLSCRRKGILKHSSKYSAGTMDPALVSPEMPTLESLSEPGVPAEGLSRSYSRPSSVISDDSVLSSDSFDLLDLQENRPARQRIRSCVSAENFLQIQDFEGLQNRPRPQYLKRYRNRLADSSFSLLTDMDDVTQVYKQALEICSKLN
Summary of the method: (§1)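 Radiometric ^33P ATP cell-free format with purified enzymes; both complexes run at 10 μM in duplicate, results plotted on a kinome map via HGNC symbols.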

[2] = target: 140 purified human kinases (Homo sapiens, UniProt O75116); details: ROCK 2
Summary of the method: as §1

[3] = target: 140 purified human kinases (Homo sapiens, UniProt P04629); details: TrkA
Summary of the method: as §1

[4] = target: 140 purified human kinases (Homo sapiens, UniProt P49137)
Summary of the method: as §1

[5] = target: T2, 140 purified human kinases (Homo sapiens, UniProt Q8TD08)
T2 sequence (Q8TD08 1-544): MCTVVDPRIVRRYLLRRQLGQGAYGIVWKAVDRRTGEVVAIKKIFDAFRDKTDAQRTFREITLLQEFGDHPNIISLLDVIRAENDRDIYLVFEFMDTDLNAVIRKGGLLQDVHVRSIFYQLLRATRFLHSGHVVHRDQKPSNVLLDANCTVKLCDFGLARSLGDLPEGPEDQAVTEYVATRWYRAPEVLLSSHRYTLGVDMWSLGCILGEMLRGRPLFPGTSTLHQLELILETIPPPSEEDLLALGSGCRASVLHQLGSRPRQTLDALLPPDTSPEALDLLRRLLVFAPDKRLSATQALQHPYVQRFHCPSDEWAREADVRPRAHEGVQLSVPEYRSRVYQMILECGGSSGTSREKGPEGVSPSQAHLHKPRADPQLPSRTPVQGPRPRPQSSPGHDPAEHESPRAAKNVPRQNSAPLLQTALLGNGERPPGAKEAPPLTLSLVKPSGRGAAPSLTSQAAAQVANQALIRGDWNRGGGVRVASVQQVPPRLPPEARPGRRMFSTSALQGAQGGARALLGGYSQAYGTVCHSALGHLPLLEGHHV
Summary of the method: as §1

[6] = target: T3, 140 purified human kinases (Homo sapiens, UniProt Q96L34)
T3 sequence (Q96L34 1-752): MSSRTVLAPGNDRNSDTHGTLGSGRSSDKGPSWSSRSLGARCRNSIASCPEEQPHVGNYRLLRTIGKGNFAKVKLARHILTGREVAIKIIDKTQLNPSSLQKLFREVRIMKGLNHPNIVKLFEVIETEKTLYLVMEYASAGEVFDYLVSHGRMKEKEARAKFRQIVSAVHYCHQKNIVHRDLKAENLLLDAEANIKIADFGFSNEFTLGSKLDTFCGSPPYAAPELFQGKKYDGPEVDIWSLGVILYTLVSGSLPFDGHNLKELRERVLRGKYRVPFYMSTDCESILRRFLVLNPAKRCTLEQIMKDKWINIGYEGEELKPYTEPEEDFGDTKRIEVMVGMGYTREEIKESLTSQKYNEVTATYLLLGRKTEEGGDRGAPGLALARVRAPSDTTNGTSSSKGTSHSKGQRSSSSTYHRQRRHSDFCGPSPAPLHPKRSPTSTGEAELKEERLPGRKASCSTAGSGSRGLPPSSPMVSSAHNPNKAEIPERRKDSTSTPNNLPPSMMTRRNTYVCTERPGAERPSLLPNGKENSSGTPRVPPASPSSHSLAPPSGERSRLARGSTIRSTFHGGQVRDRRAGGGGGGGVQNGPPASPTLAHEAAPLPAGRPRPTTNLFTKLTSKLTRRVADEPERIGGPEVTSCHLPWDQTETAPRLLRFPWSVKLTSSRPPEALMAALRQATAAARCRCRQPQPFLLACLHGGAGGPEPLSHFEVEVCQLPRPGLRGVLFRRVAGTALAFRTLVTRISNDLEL
Summary of the method: as §1

Chain of 140 purified human kinases (Homo sapiens, UniProt O75116) (O75116 whole entry): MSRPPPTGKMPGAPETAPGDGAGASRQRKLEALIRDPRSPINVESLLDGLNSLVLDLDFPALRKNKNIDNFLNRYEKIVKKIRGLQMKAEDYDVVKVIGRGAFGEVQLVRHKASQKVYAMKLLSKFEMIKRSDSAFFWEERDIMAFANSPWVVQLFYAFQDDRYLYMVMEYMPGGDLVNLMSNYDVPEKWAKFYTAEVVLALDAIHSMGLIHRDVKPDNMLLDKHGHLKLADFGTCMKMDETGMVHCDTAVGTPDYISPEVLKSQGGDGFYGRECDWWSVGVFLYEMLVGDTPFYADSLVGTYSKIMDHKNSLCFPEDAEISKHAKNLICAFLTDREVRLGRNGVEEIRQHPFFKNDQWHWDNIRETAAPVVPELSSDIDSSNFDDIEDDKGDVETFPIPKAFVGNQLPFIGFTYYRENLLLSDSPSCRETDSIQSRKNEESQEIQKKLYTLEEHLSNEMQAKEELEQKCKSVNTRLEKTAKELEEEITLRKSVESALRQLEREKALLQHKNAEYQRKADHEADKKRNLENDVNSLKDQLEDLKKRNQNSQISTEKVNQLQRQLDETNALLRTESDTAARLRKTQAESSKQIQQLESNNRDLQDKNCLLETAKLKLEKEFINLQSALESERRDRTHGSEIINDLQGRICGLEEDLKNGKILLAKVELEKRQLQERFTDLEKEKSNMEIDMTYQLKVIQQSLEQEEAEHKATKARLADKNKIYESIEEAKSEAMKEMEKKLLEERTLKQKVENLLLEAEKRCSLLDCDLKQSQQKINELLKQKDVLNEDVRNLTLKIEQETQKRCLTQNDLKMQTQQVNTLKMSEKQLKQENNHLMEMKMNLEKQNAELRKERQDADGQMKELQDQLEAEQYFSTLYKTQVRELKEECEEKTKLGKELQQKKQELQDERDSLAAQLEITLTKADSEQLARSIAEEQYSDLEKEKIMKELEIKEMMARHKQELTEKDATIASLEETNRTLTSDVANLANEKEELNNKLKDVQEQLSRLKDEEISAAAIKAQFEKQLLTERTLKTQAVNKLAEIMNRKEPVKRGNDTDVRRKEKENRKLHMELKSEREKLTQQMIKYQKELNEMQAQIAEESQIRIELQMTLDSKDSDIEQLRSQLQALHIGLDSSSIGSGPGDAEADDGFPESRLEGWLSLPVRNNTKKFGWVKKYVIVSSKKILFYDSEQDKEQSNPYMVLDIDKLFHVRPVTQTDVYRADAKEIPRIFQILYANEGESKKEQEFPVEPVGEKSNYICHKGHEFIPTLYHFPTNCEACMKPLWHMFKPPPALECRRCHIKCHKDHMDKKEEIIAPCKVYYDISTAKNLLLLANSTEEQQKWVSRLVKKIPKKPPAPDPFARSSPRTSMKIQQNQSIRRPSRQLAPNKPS
Chain of 140 purified human kinases (Homo sapiens, UniProt P49137) (P49137 whole entry): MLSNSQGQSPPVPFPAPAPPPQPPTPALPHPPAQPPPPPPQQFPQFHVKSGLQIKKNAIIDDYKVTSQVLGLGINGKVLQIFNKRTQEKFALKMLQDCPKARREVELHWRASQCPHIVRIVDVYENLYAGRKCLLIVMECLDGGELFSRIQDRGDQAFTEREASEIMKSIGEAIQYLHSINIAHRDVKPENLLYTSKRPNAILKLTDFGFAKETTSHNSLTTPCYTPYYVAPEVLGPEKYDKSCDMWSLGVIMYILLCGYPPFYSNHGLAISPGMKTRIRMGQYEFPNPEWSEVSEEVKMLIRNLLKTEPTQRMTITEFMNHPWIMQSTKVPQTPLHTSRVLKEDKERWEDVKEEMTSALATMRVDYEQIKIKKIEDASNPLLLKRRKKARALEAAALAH
Chain of 140 purified human kinases (Homo sapiens, UniProt P04629) (P04629 33-796): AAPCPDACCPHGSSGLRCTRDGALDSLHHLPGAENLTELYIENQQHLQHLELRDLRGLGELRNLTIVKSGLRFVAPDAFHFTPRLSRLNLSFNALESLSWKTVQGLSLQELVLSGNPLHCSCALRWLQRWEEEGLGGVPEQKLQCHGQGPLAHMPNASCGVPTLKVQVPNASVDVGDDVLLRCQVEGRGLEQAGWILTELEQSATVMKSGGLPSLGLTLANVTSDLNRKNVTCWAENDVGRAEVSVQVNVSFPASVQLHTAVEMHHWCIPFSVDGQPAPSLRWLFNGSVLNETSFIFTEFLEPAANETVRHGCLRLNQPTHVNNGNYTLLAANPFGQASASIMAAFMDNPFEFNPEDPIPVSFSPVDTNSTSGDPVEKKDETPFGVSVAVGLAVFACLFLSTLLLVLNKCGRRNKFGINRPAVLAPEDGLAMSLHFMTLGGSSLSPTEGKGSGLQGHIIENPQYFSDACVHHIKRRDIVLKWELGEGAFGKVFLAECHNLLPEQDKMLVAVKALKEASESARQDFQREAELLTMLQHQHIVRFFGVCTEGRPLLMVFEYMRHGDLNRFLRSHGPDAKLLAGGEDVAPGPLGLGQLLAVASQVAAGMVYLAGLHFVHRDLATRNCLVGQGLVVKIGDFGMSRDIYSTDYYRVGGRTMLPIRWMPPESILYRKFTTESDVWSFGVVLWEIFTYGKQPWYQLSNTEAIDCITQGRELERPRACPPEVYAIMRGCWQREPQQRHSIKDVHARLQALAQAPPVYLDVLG

SMILES: CC(=O)[O-].CC(=O)[O-].CC(=O)[O-].CC(=O)[O-].CC(=O)[O-].CC(=O)[O-].[Zn+2].[Zn+2].[Zn+2].c1ccc(-c2csc(NCCN(CCNc3nc(-c4ccccn4)cs3)CCNc3nc(-c4ccccn4)cs3)n2)nc1.c1ccc(-c2csc(NCCN(CCNc3nc(-c4ccccn4)cs3)CCNc3nc(-c4ccccn4)cs3)n2)nc1 [[L2Zn3]6+]
- % Inhibition, Mean ([1]; NUAK1): 61%
- % Inhibition, Run 1 / Run 2 ([1]; NUAK1): 64% and 59%
- mean % activity ([1]; NUAK1): 39%
- % activity ([1]; NUAK1, duplicate runs): 36% and 41%
- % Activation, Mean value [2]: 17%
- % Inhibition, Mean [2]: -17%
- % Inhibition, Run 1 / Run 2 [2]: -20% and -14%
- mean % activity [2]: 117%
- % Activity Run 1 ([2]; 10 µM): 120.0%
- % Activity Run 2 ([2]; 10 µM): 114.0%
- % activity ([2]; duplicate runs): 120% and 114%
- % Inhibition, Mean [3]: 87%
- % Inhibition, Run 1 / Run 2 [3]: 88% and 86%
- mean % activity [3]: 13%
- % Activity inhibition Mean ([3]; 10 µM): 86.5%
- % Activity inhibition Run 1 ([3]; 10 µM): 88%
- % Activity inhibition Run 2 ([3]; 10 µM): 85%
- % Activity remaining Run 1 ([3]; 10 µM): 12%
- % Activity remaining Run 2 ([3]; 10 µM): 15%
- % activity ([3]; duplicate runs): 12% and 15%
- % Inhibition, Mean ([4]; MAPKAP-K2): 41%
- % Inhibition, Run 1 / Run 2 ([4]; MAPKAP-K2): 47% and 35%
- mean % activity ([4]; MAPKAP-K2): 60%
- % activity ([4]; MAPKAP-K2, duplicate runs): 54% and 66%
- % Inhibition, Mean ([5]; ERK8): 15%
- % Inhibition, Run 1 / Run 2 ([5]; ERK8): 15%
- mean % activity ([5]; ERK8): 85%
- % activity ([5]; ERK8, duplicate runs): 86% and 85%
- % Inhibition, Mean ([6]; MARK4): 39%
- % Inhibition, Run 1 / Run 2 ([6]; MARK4): 48% and 31%
- mean % activity ([6]; MARK4): 61%
- % activity ([6]; MARK4, duplicate runs): 52% and 70%

SMILES: [Cu+2].[Cu+2].[Cu+2].c1ccc(-c2csc(NCCN(CCNc3nc(-c4ccccn4)cs3)CCNc3nc(-c4ccccn4)cs3)n2)nc1.c1ccc(-c2csc(NCCN(CCNc3nc(-c4ccccn4)cs3)CCNc3nc(-c4ccccn4)cs3)n2)nc1 [[L2Cu3]6+]
- % Inhibition Run 1 ([1]; NUAK1): 93.9%
- % Inhibition Run 2 ([1]; NUAK1): 92.9%
- % Inhibition, Mean ([1]; NUAK1): 93%
- mean % activity ([1]; NUAK1): 6.6%
- % activity ([1]; NUAK1, Run 1): 6.1%
- % activity ([1]; NUAK1, Run 2): 7.1%
- % Activity inhibition Mean ([1]; NUAK1, 10 µM): 93.4%
- % Activity inhibition Run 1 ([1]; NUAK1, 10 µM): 93.9%
- % Activity inhibition Run 2 ([1]; NUAK1, 10 µM): 92.9%
- % Activity remaining Run 1 ([1]; NUAK1, 10 µM): 6.10%
- % Activity remaining Run 2 ([1]; NUAK1, 10 µM): 7.10%
- % Inhibition Run 1 [2]: 83.5%
- % Inhibition Run 2 [2]: 77.5%
- % Inhibition, Mean [2]: 81%
- mean % activity [2]: 20%
- % Inhibition Run 1 [3]: 78.1%
- % Inhibition Run 2 [3]: 61.2%
- % Inhibition, Mean [3]: 70%
- mean % activity [3]: 30%
- % activity ([3]; Run 1): 21.9%
- % activity ([3]; Run 2): 38.8%
- % Inhibition Run 1 ([4]; MAPKAP-K2): 97.8%
- % Inhibition Run 2 ([4]; MAPKAP-K2): 98.1%
- % Inhibition, Mean ([4]; MAPKAP-K2): 98%
- mean % activity ([4]; MAPKAP-K2): 2%
- % activity ([4]; MAPKAP-K2, Run 1): 2.2%
- % activity ([4]; MAPKAP-K2, Run 2): 1.9%
- % Activity inhibition Mean ([4]; MAPKAP-K2, 10 µM): 97.9%
- % Activity inhibition Run 1 ([4]; MAPKAP-K2, 10 µM): 97.8%
- % Activity inhibition Run 2 ([4]; MAPKAP-K2, 10 µM): 98.1%
- % Activity remaining Run 1 ([4]; MAPKAP-K2, 10 µM): 2.20%
- % Activity remaining Run 2 ([4]; MAPKAP-K2, 10 µM): 1.90%
- % Activation, Mean value ([5]; ERK8): 27%
- % Inhibition Run 1 ([5]; ERK8): -16.9%
- % Inhibition Run 2 ([5]; ERK8): -37.3%
- % Inhibition, Mean ([5]; ERK8): -27%
- mean % activity ([5]; ERK8): 127%
- % activity ([5]; ERK8, Run 1): 116.9%
- % activity ([5]; ERK8, Run 2): 137.3%
- % Activity Run 1 ([5]; ERK8, 10 µM): 116.90%
- % Activity Run 2 ([5]; ERK8, 10 µM): 137.30%
- % Inhibition Run 1 ([6]; MARK4): 52.1%
- % Inhibition Run 2 ([6]; MARK4): 52.2%
- % Inhibition, Mean ([6]; MARK4): 52%
- mean % activity ([6]; MARK4): 48%
- % activity ([6]; MARK4, Run 1): 47.9%
- % activity ([6]; MARK4, Run 2): 47.8%
